Data from PMC4295843, “Metabolism of Androstenone, 17β-Estradiol and Dihydrotestosterone in Primary Cultured Pig Hepatocytes and the Role of 3β-Hydroxysteroid Dehydrogenase in This Process” (PLoS ONE, 2015).
Entries after “also recorded” stand apart in the source; their conditions may differ. Like-named read-outs stand apart in the source and are kept apart here.

Columns and labels:
[1] = test system: primary cultured pig hepatocytes; experiment: Steroid metabolism in primary cultured pig hepatocytes, LC-TOF-MS of cell culture medium; conditions: for Peak height of the ion chromatogram of the steroid metabolite in cell culture medium, C: 48 h incubation in absence of enzyme inhibitors, 10 µM parent steroid, Mean ± SD
in vitro = conditions: male, Large White, pig
Procedure: Primary pig hepatocytes were isolated from Large White male pigs (3–5 days old) using procedure described by Chen et al.. The experimental protocol for using animals was approved by the Animal Ethics Committee of the China Agricultural University, Beijing, China (permission number: 2011-11-23-1). […] Approximately 5×10^6 cells were plated into 10 cm Petri dishes with 10 ml of Dulbecco modified Eagle’s medium (DMEM) containing 20% fetal bovine serum (FBS) supplemented with insulin (10 mg/L), penicillin (100 U/mL) and streptomycin (100 µg/mL). Hepatocytes were incubated for 24 h in a humidified atmosphere at 37°C with 5% of CO2.
After the incubation, the primary pig hepatocytes were washed three times with phosphate buffer saline solution (PBS) before they were treated with steroids and/or inhibitors. In steroid metabolism studies, hepatocytes were incubated in 10 ml of basal growth medium containing phenol red-free DMEM with 10% of charcoal treated FBS fortified with 10 µM (final concentration) of androstenone, 17β-estradiol or dihydrotestosterone. In the inhibition experiments, 10 µM (final concentration) of trilostane or apigenin, the specific inhibitors of 3βHSD and 17βHSD respectively, were added to hepatocytes simultaneously with androstenone, 17β-estradiol or dihydrotestosterone. Solutions of both, the inhibitors and steroids, were prepared in methanol. […] In the cytotoxicity text, the steroids were incubated with different concentrations of inhibitors (1, 10, 25 and 50 µM) for 48 h. The cell viability was analyzed using CellTiter-Glo Luminescent Cell Viability Assay (Promega, Madison, WI) reagent following manufacture’s protocol. The cell culture medium was collected at the following time points: 0, 6, 12, 18, 24, 30, 36, 42 and 48 h after adding steroids and/or inhibitors, and was stored at −80°C until metabolites analysis. Cells treated with basal growth medium were used as control. The experiments were repeated in three different days. Experiments on each of the three days were conducted in triplicate.

[2] = test system: primary cultured pig hepatocytes; conditions: male, Large White, 10 µM
17βHSD = experiment: Inhibition of steroid glucuronide metabolite formation in pig hepatocytes by the 17βHSD inhibitor; assay type: cell-based
Procedure: (§1) The experiments were repeated in three different days.
(§2) Extraction procedure for steroid metabolites was as follows: two mL of cell culture medium was taken in duplicate from each hepatocytes incubation and split into two samples, 1 mL per sample. One sample was treated with 0.1 mL of 30% trichloroacetic acid (TCA) to precipitate protein. The protein precipitation procedure was optimized by analyzing protein residues using HPLC at ultraviolet wavelength (240 nm). Another sample was pre-treated with β-glucuronidase prior to protein precipitation. The pre-treatment involved incubation with 2 mL of PBS buffer (pH = 5.0) in the presence of β-glucuronidase (2.08 µkat) for 16 h at 37°C. The samples were centrifuged at 17226 g for 10 min. All of the supernatants were collected and loaded onto a SPE cartridge (Bond Elut-C18, 500 mg/3 mL, Agilent, Lake Forest, CA, USA) preconditioned with 3 mL of methanol and water. The cartridges were washed with 3 mL of water and 3 mL 5% of methanol and then vacuum dried. The analytes were eluted with 9 mL of acetonitrile (ACN). The elutants were evaporated under nitrogen and reconstituted with 400 µL of 62.5% methanol. Solvents were passed through 0.22 µm filter paper (Jinteng company, Tianjin, China), and then transferred to inserts for analysis. The recoveries were determined by analyzing spiked samples in a basal medium. The recoveries for androstenone, 17β-estradiol and dihydrotestosterone were in a range of 60–95%.
(§3) Steroid metabolites were analyzed by LC-TOF-MS (QSTAR Elite, AB Sciex, ON, Canada) equipped with an electrospray ion source (TurboIonSpray) and controlled by Analyst QS 2.0 software. ESI source was run on both, a positive and negative mode. Spectrometry parameters were as follows: ion source GS1 and GS2 were 0.41 and 0.34 MPa, respectively. Curtain gas was 0.14 MPa. Collision gas was 0.04 MPa. All the gases were supplied with nitrogen (purity≥99.995%). IonSpray voltage was 5500 V (ESI+) and −4200 V (ESI–). Ion source temperature was 500°C. Declustering Potential (DP) was 60 V (ESI+) and −60 V (ESI–). The Q1 mass monitoring was conducted using a scan mode in the range from 200 to 600 m/z. Mass intensity above 100 counts was set for acquiring product ions on TOF analyzer. An information dependent acquisition (IDA) method was set to optimize data acquisition.
(§4) Chromatographic separation was conducted using HPLC coupled to mass spectrometry (1200 SL, Agilent Technologies, USA) equipped with a binary pump, vacuum solvent degasser, column oven and autosampler (Agilent Technologies, Waldbronn, Germany). The column used was Zorbax Eclipse Plus C18 (2.1×100 mm, 3.5 µm) with a guard column (2.1×12.5 mm, 5 µm) (Agilent Technologies, USA). For the ESI+ mode, the mobile phase was 0.1% formic acid in water (A) and methanol (B). For the ESI– mode, the mobile phase was 0.1% ammonium in water (A) and methanol (B). The linear gradient used was as follows: 50% to 95% solvent B at 0–5 min; 95% solvent at 9 min, 50% solvent B at 9.1 and 15 min. The flow rate was 300 µL/min, and the sample injection volume was 20 µL.

3βHSD = molecular target: T1, 3βHSD (Sus scrofa, UniProt Q9N119); experiment: Inhibition of steroid glucuronide metabolite formation in pig hepatocytes by the 3βHSD inhibitor; assay type: cell-based
T1 construct: endogenous in cells; host or cells: primary hepatocytes of Large White male pigs
T1 sequence (Q9N119 1-373): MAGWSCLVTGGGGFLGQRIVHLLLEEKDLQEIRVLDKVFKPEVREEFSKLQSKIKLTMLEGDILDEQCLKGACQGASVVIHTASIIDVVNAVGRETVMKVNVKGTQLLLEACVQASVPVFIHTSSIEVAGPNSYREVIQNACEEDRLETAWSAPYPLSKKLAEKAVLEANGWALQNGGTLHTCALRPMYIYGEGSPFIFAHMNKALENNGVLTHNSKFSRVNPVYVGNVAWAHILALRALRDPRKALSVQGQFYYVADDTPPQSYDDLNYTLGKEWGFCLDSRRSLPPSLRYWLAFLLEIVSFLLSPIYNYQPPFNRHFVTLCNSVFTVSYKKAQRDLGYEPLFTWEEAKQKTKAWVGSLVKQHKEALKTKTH
Procedure: as §1, §2, §3, §4

[3] = 10 µM inhibitor with 17β-estradiol
[4] = 10 µM inhibitor with dihydrotestosterone
[5] = 48 h, 10 µM apigenin with 10 µM 17β-estradiol, Mean ± SD
[6] = 48 h, 10 µM trilostane with 10 µM 17β-estradiol, Mean ± SD

Compound	Peak height of the ion chromatogram of the steroid metabolite in cell culture medium, C [1] [cps/1000]	viability at 48 h, 1 µM (in vitro) [%]	viability at 48 h, 10 µM (in vitro) [%]	viability at 48 h, 25 µM (in vitro) [%]	viability at 48 h, 50 µM (in vitro) [%]	further results
5α-androst-16-en-3β-glucuronide [Androstenone glucuronide]	3.4±0.5	–	–	–	–	–
C[C@]12CC[C@@H]3c4ccc(O)cc4CC[C@H]3[C@@H]1CC[C@@H]2O [17β-Estradiol]	–	109 ± 4.8	91.6 ± 0.4	89.8 ± 8	83.6 ± 1.6	Share of 17β-estradiol oxidized at C-17 to estrone, forming E1-G [2]: over 80%; Share of 17β-estradiol undergoing direct phase II metabolism, forming E2-G [2]: Less than 20%; Parent steroid in cell culture medium after incubation with hepatocytes ([2]; 6 h): No 17β-estradiol was found
C[C@]12CCC(=O)C[C@@H]1CC[C@@H]1[C@@H]2CC[C@]2(C)C=CC[C@@H]12 [Androstenone, 5α-androst-16-ene-3-one]	–	90.6 ± 3.8	89 ± 7.2	77.2 ± 0.6	78.7 ± 6.8	Metabolite identified [2]: hydroxylated to 3β-A prior to glucuronidation
O=c1cc(-c2ccc(O)cc2)oc2cc(O)cc(O)c12 [Apigenin, apigenin]	–	97.7 ± 3.2	83.5 ± 5.9	64.2 ± 1.7	69.8 ± 0.9	Inhibition of E2-G and E1-G formation (17βHSD; [3]): no significant inhibition; Effect on the level of androstenone metabolite (17βHSD; 10 µM inhibitor with androstenone): did not affect significantly; Effect on DHT-G level / formation (17βHSD; [4]): did not have any effect; Peak height of Estradiol 3β-glucuronide in cell culture medium (17βHSD; [5]): 2.6±0.1 cps/1000; Peak height of Estrone glucuronide in cell culture medium (17βHSD; [5]): 15.3±1.1 cps/1000; Peak height of Androstenone glucuronide in cell culture medium (17βHSD; 48 h, 10 µM apigenin with 10 µM androstenone, Mean ± SD): 3.7±0.9 cps/1000; Peak height of Dihydrotestosterone 17β-glucuronide in cell culture medium (17βHSD; 48 h, 10 µM apigenin with 10 µM dihydrotestosterone, Mean ± SD): 11.5±0.5 cps/1000
C[C@]12CCC(=O)C[C@@H]1CC[C@@H]1[C@@H]2CC[C@]2(C)[C@@H](O)CC[C@@H]12 [Dihydrotestosterone]	–	96.7 ± 0.1	84.3 ± 3.9	79.1 ± 2.2	76.1 ± 4.7	Metabolite identified ([1]; 10 µM steroid, LC-TOF-MS, cell culture medium): 5α-dihydrotestosterone-17β-glucuronide; Parent steroid in cell culture medium after incubation with hepatocytes ([1]; 10 µM steroid, after 6 h of incubation): rapidly metabolized; also recorded: No dihydrotestosterone was found
C[C@]12CC[C@@H]3c4ccc(O[C@@H]5O[C@H](C(=O)O)[C@@H](O)[C@H](O)[C@H]5O)cc4CC[C@H]3[C@@H]1CC[C@@H]2O [Estradiol 3β-glucuronide, β-estradiol-3-glucuronide]	3.1±0.8	–	–	–	–	–
C[C@]12CC[C@@H]3c4ccc(O[C@@H]5O[C@H](C(=O)O)[C@@H](O)[C@H](O)[C@H]5O)cc4CC[C@H]3[C@@H]1CCC2=O [Estrone glucuronide, estrone-3-glucuronide]	16.5±2.2	–	–	–	–	–
C[C@]12CC[C@H]3[C@@H](CC[C@@]45O[C@@H]4C(O)=C(C#N)C[C@]35C)[C@@H]1CC[C@@H]2O [Trilostane, trilostane]	–	91.8 ± 0.1	82.4 ± 2.1	79.1 ± 2.9	69.2 ± 1.8	Inhibition of E2-G and E1-G formation (3βHSD; [3]): no significant inhibition; Effect on DHT-G formation (3βHSD; [4]): greatly inhibited; Decrease in the formation of androstenone metabolite (3βHSD; 10 µM inhibitor, cell culture medium): 70%; Reduction of DHT-G formation (3βHSD; 10 µM inhibitor, hepatocytes): ~86%; Peak height of Estradiol 3β-glucuronide in cell culture medium (3βHSD; [6]): 2.7±0.4 cps/1000; Peak height of Estrone glucuronide in cell culture medium (3βHSD; [6]): 13.5±1.7 cps/1000; Peak height of Androstenone glucuronide in cell culture medium (3βHSD; 48 h, 10 µM trilostane with 10 µM androstenone, Mean ± SD): 1.0±0.6 cps/1000; Peak height of Dihydrotestosterone 17β-glucuronide in cell culture medium (3βHSD; 48 h, 10 µM trilostane with 10 µM dihydrotestosterone, Mean ± SD): 1.6±0.2 cps/1000
